# Measured values: patent US10336730B2, “Substituted glycine derived FXIA inhibitors” (BRISTOL-MYERS SQUIBB COMPANY, priority 2015, dated 2019)
# Experiments:
# Type in all cases: biochemical
# [1] = system: citrated normal human plasma; test: Activated Partial Thromboplastin Time (aPTT) plasma clotting assay; conditions: inhibitor concentration required to increase the clotting time by 1.5 times
# Excerpt: The effectiveness of compounds of the present invention as inhibitors of coagulation can be determined using a standard or modified clotting assay. An increase in the plasma clotting time in the presence of inhibitor is indicative of anticoagulation. Relative clotting time is the clotting time in the presence of an inhibitor divided by the clotting time in the absence of an inhibitor. The results of this assay may be expressed as IC1.5× or IC2×, the inhibitor concentration required to increase the clotting time by 1.5 times or 2 times, respectively, relative to the clotting time in the absence of the inhibitor. The IC1.5× or IC2× is found by linear interpolation from relative clotting time versus inhibitor concentration plots using inhibitor concentrations that span the IC1.5× or IC2×.
# Clotting times are determined using citrated normal human plasma as well as plasma obtained from a number of laboratory animal species (e.g., rat, or rabbit). A compound is diluted into plasma beginning with a 10 mM DMSO stock solution. The final concentration of DMSO is less than 2%. Plasma clotting assays are performed in an automated coagulation analyzer (Sysmex, Dade-Behring, Illinois). Similarly, clotting times can be determined from laboratory animal species or humans dosed with compounds of the invention.
# Activated Partial Thromboplastin Time (aPTT) is determined using ACTIN® FSL (Dade-Behring, Illinois) following the directions in the package insert. Plasma (0.05 mL) is warmed to 37° C. for 1 minute. ACTIN® FSL (0.05 mL) is added to the plasma and incubated for an additional 2 to 5 minutes. Calcium chloride (25 mM, 0.05 mL) is added to the reaction to initiate coagulation. The clotting time is the time in seconds from the moment calcium chloride is added until a clot is detected.
# [2] = biological target: T1, purified human plasma kallikrein (Homo sapiens, UniProt P03952); test: Plasma kallikrein enzyme inhibition assay (chromogenic substrate S-2302), Ki; conditions: substrate S-2302, pH 7.5
# T1 construct: purchased Enzyme Research Laboratories
# T1 sequence (P03952 391-638 limits assumed): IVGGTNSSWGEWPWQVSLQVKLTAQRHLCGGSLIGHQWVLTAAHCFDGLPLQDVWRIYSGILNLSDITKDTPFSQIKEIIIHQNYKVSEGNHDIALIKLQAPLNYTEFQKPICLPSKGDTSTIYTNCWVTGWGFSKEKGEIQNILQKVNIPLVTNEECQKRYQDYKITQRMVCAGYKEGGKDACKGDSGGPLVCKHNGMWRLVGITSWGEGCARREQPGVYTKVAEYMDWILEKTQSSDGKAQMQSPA
# T1 sequence (P03952 20-390 partner limits assumed): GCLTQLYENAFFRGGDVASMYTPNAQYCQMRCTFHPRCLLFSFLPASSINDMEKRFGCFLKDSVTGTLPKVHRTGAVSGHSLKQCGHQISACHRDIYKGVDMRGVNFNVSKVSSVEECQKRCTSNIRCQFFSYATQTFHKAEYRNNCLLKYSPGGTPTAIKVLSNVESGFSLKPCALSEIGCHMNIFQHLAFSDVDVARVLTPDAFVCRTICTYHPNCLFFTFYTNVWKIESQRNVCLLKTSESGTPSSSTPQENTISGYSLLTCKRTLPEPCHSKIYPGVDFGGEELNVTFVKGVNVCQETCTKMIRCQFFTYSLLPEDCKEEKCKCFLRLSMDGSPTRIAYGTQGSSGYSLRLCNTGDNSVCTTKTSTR
# Method: The effectiveness of compounds of the present invention as inhibitors of the coagulation Factors XIa, VIIa, IXa, Xa, XIIa, plasma kallikrein, thrombin, chemytrypsin or trypsin can be determined using a relevant purified serine protease, respectively, and an appropriate synthetic substrate. The rate of hydrolysis of the chromogenic or fluorogenic substrate by the relevant serine protease was measured both in the absence and presence of compounds of the present invention. […] A decrease in the rate of absorbance or fluorescence change in the presence of inhibitor is indicative of enzyme inhibition. Such methods are known to one skilled in the art. The results of this assay are expressed as the inhibitory constant, Ki.
# Plasma kallikrein determinations were made in 0.1 M sodium phosphate buffer at a pH of 7.5 containing 0.1-0.2 M sodium chloride and 0.5% PEG 8000. Determinations were made using purified human plasma kallikrein (Enzyme Research Laboratories) at a final assay concentration of […] and the synthetic substrate S-2302 (H-(D)-Pro-Phe-Arg-pNA; CHROMOGENIX®) at a concentration of 0.00008-0.0004 M.
# Values of Ki were determined by allowing the protease to react with the substrate in the presence of the inhibitor. Reactions were allowed to go for periods of 20-180 minutes (depending on the protease) and the velocities (rate of absorbance or fluorescence change versus time) were measured. The following relationships were used to calculate Ki values: (Vmax*S)/(Km+S) (vo−vs)/vs=I/(Ki*(1+S/Km)) for a competitive inhibitor with one binding site; or vs/vo=A+(B−A)/(1+(IC50/(I)^n)); and Ki=IC50/(1+S/Km) for a competitive inhibitor where: […]
# [3] = biological target: T2, purified human Factor XIa (Homo sapiens, UniProt P03951); test: Factor XIa enzyme inhibition assay (chromogenic substrate S-2366), Ki; conditions: substrate S-2366, pH 7.4
# T2 construct: purchased Haematologic Technologies
# T2 sequence (P03951 388-625 limits assumed): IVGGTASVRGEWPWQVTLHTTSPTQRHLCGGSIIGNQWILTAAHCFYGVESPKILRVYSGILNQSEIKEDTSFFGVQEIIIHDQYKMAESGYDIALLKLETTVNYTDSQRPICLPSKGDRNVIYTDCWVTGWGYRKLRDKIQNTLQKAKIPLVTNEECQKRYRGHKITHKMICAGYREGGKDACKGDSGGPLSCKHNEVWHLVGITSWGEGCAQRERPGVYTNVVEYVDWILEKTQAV
# T2 sequence (P03951 19-387 partner limits assumed): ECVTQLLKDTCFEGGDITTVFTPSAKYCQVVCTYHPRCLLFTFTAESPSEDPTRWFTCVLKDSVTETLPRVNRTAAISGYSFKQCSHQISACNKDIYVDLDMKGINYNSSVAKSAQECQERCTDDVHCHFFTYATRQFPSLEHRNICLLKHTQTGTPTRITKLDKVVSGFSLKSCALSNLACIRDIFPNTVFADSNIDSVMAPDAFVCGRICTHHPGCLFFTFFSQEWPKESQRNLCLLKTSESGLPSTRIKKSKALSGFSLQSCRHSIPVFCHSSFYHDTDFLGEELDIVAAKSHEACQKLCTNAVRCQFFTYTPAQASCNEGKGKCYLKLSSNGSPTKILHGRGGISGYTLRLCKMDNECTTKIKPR
# Procedure, shortened: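 Purified human Factor XIa ([…] final) with chromogenic substrate S-2366 (0.0002-0.001 M) in 50 mM HEPES pH 7.4, 145 mM NaCl, 5 mM KCl, 0.1% PEG 8000. Velocities measured over 20-180 minutes with and without inhibitor; Ki derived assuming competitive inhibition, e.g. Ki=IC50/(1+S/Km).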
Structure (SMILES),Ki [2],Ki [3],aPTT (IC1.5×) [1]
"O=C(O)c1ccc(NC(=O)[C@H](Cc2ccccc2)n2cnc(-c3c(-n4cc(Cl)nn4)ccc(Cl)c3F)cc2=O)cc1 [Example 9, (S)-4-(2-(4-(3-chloro-6-(4-chloro-1H-1,2,3-triazol-1-yl)-2-fluorophenyl)-6-oxopyrimidin-1(6H)-yl)-3-phenylpropanamido)benzoic Acid]",36 nM,0.64 nM,0.91 µM
"O=C(Nc1ccccc1)[C@H](Cc1ccccc1)n1cnc(-c2cc(Cl)ccc2-n2cc(Cl)nn2)cc1=O [Example 12, (S)-2-(4-(5-chloro-2-(4-chloro-1H-1,2,3-triazol-1-yl)phenyl)-6-oxopyrimidin-1(6H)-yl)-N,3-diphenylpropanamide]",1480 nM,35.7 nM,–
"O=C(Nc1ccncc1)[C@H](Cc1ccccc1)n1cnc(-c2cc(Cl)ccc2-n2cc(Cl)nn2)cc1=O [Example 13, (S)-2-(4-(5-chloro-2-(4-chloro-1H-1,2,3-triazol-1-yl)phenyl)-6-oxopyrimidin-1(6H)-yl)-3-phenyl-N-(pyridin-4-yl)propanamide]",984 nM,43.6 nM,–
"O=C(Nc1ccc2[nH]c(C(F)(F)F)nc2c1)[C@H](Cc1ccccc1)n1cnc(-c2cc(Cl)ccc2-n2cc(Cl)nn2)cc1=O [Example 16, (S)-2-(4-(5-chloro-2-(4-chloro-1H-1,2,3-triazol-1-yl)phenyl)-6-oxopyrimidin-1(6H)-yl)-3-phenyl-N-(2-(trifluoromethyl)-1H-benzo[d]imidazol-5-yl)propanamide]",257 nM,26 nM,–
"O=C(Nc1ccc2c(c1)OCO2)[C@H](Cc1ccccc1)n1cnc(-c2cc(Cl)ccc2-n2cc(Cl)nn2)cc1=O [Example 18, (S)—N-(benzo[d][1,3]dioxol-5-yl)-2-(4-(5-chloro-2-(4-chloro-1H-1,2,3-triazol-1-yl)phenyl)-6-oxopyrimidin-1(6H)-yl)-3-phenylpropanamide]",1480 nM,99.4 nM,–
"O=C(NCc1ccccc1)[C@H](Cc1ccccc1)n1cnc(-c2cc(Cl)ccc2-n2cc(Cl)nn2)cc1=O [Example 19, (S)—N-benzyl-2-(4-(5-chloro-2-(4-chloro-1H-1,2,3-triazol-1-yl)phenyl)-6-oxopyrimidin-1(6H)-yl)-3-phenylpropanamide]",13300 nM,357 nM,–
"O=C(Nc1ccc2c(=O)[nH]ccc2c1)[C@H](Cc1ccccc1)n1cnc(-c2cc(Cl)ccc2-n2cc(Cl)nn2)cc1=O [Example 96, (S)-2-(4-(5-chloro-2-(4-chloro-1H-1,2,3-triazol-1-yl)phenyl)-6-oxopyrimidin-1(6H)-yl)-N-(1-oxo-1,2-dihydroisoquinolin-6-yl)-3-phenylpropanamide]",–,19.8 nM,13.6 µM
"N#Cc1ccc(Cl)c(F)c1C1=CC(=O)N(C(Cc2ccccc2)C(=O)Nc2ccc(C(=O)O)cc2)CC1 (stereo not drawn) [Example 130, 4-{2-[4-(3-Chloro-6-cyano-2-fluorophenyl)-6-oxo-1,2,3,6-tetrahydropyridin-1-yl]-3-phenylpropanamido}benzoic Acid]",–,12.8 nM,17.5 µM
"O=C(O)c1ccc(NC(=O)[C@H](Cc2ccccc2)N2CCC(c3cc(Cl)ccc3-n3ccnn3)=CC2=O)cc1 [Example 136, 4-[(2S)-2-{4-[5-chloro-2-(1H-1,2,3-triazol-1-yl)phenyl]-6-oxo-1,2,3,6-tetrahydropyridin-1-yl}-3-phenylpropanamido]benzoic Acid]",–,5.73 nM,–
"O=C(O)c1ccc(NC(=O)[C@H](Cc2ccccc2)N2CCC(c3c(-n4ccnn4)ccc(Cl)c3F)=CC2=O)cc1 [Example 137, 4-[(2S)-2-{4-[3-chloro-2-fluoro-6-(1H-1,2,3-triazol-1-yl)phenyl]-6-oxo-1,2,3,6-tetrahydropyridin-1-yl}-3-phenylpropanamido]benzoic Acid]",–,3.24 nM,–
"O=C(O)c1ccc(NC(=O)[C@H](Cc2ccc(NC(=O)C3CC3)cc2)N2CCC(c3cc(Cl)ccc3-n3cc(Cl)nn3)=CC2=O)cc1 [Example 141, (S)-4-(2-(4-(5-chloro-2-(4-chloro-1H-1,2,3-triazol-1-yl)phenyl)-6-oxo-3,6-dihydropyridin-1(2H)-yl)-3-(4-(cyclopropanecarboxamido)phenyl)propanamido)benzoic Acid]",–,0.92 nM,2.05 µM
"O=C(O)c1ccc(NC(=O)[C@H](Cc2ccccc2)n2ncc(-c3cc(Cl)ccc3-n3cc(C(F)(F)F)nn3)cc2=O)cc1 [Example 143, 4-[(2S)-2-(4-{5-Chloro-2-[4-(trifluoromethyl)-1H-1,2,3-triazol-1-yl]phenyl}-6-oxo-1,6-dihydropyridazin-1-yl)-3-phenyl-propanamido]benzoic Acid]",569 nM,5.5 nM,–

# Further molecules by falling Ki [3], results first:
Ki [2],Ki [3],Structure (SMILES),aPTT (IC1.5×) [1]
6900 nM,1030 nM,"O=C(O)c1ccc(NC(=O)[C@H](Cc2ccccc2)n2ncc(-c3c(F)ccc(Cl)c3F)cc2=O)cc1 [Example 144, 4-[(2S)-2-[4-(3-Chloro-2,6-difluorophenyl)-6-oxo-1,6-dihydropyridazin-1-yl]-3-phenylpropanamido]benzoic Acid]",–
–,552 nM,"O=C(O)c1ccc(NC(=O)[C@H](Cc2ccc(NC(=O)C3CC3)cc2)N2CCC(c3c(F)ccc(Cl)c3F)=CC2=O)cc1 [Example 140, (S)-4-(2-(4-(3-chloro-2,6-difluorophenyl)-6-oxo-3,6-dihydropyridin-1(2H)-yl)-3-(4-(cyclopropanecarboxamido)phenyl)propanamido)benzoic Acid]",–
3860 nM,104 nM,"COC(=O)Cn1cc(NC(=O)[C@H](Cc2ccccc2)n2cnc(-c3cc(Cl)ccc3-n3cc(Cl)nn3)cc2=O)cn1 [Example 10, Methyl 2-{4-[(2S)-2-{4-[5-chloro-2-(4-chloro-1H-1,2,3-triazol-1-yl)phenyl]-6-oxo-1,6-dihydropyrimidin-1-yl}-3-phenylpropanamido]-1H-pyrazol-1-yl}acetate]",–
2100 nM,56.4 nM,"O=C(O)Cn1cc(NC(=O)[C@H](Cc2ccccc2)n2cnc(-c3cc(Cl)ccc3-n3cc(Cl)nn3)cc2=O)cn1 [Example 11, 2-{4-[(2S)-2-{4-[5-Chloro-2-(4-chloro-1H-1,2,3-triazol-1-yl)phenyl]-6-oxo-1,6-dihydropyrimidin-1-yl}-3-phenyl-propanamido]-1H-pyrazol-1-yl}acetic Acid]",–
–,6.6 nM,"O=C1Cc2cc(NC(=O)[C@H](Cc3ccccc3)n3cnc(-c4cc(Cl)ccc4-n4cc(Cl)nn4)cc3=O)ccc2N1 [Example 23, (S)-2-(4-(5-chloro-2-(4-chloro-1H-1,2,3-triazol-1-yl)phenyl)-6-oxopyrimidin-1(6H)-yl)-N-(2-oxoindolin-5-yl)-3-phenylpropanamide]",8.0 µM
–,6.44 nM,"O=C(Nc1ccc2nccnc2c1)[C@H](Cc1ccccc1)n1cnc(-c2cc(Cl)ccc2-n2cc(Cl)nn2)cc1=O [Example 30, (S)-2-(4-(5-chloro-2-(4-chloro-1H-1,2,3-triazol-1-yl)phenyl)-6-oxopyrimidin-1(6H)-yl)-3-phenyl-N-(quinoxalin-6-yl)propanamide]",15.2 µM
–,1.73 nM,"O=C(O)c1ccc(NC(=O)[C@H](Cc2ccccc2)N2CCC(c3cc(Cl)ccc3-n3cc(Cl)nn3)=CC2=O)cc1 [Example 142, (S)-4-(2-(4-(5-chloro-2-(4-chloro-1H-1,2,3-triazol-1-yl)phenyl)-6-oxo-3,6-dihydropyridin-1(2H)-yl)-3-phenylpropanamido)benzoic Acid]",2.39 µM
